From PubChem BioAssay AID330 (DTP/NCI, 2004) come the findings set out here.

The assay has as its system P388 leukemia ip, CD2F1 mice, survival T/C. In words: NCI In Vivo Anticancer Drug Screen. Data for tumor model P388 Leukemia (intraperitoneal) in CD2F1 (CDF1) mice. Conditions: endpoint: median survival time, higher = longer survival. The method in brief: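 Mice carrying the transplanted tumor received test compound or vehicle. Survival was recorded in each group, and the value is the treated-group measurement divided by that of the vehicle-treated control group.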

[1] abbreviates: dose: 50.0 mg/kg/injection, schedule: Q01DX005 (ip), vehicle: Klucel (hydroxypropylcellulose) (HPC).
[2] abbreviates: dose: 100.0 mg/kg/injection, schedule: Q01DX005 (ip), vehicle: Klucel (hydroxypropylcellulose) (HPC).
The mark [3] stands for this setting: dose: 200.0 mg/kg/injection, schedule: Q01DX005 (ip), vehicle: Klucel (hydroxypropylcellulose) (HPC).
[4] abbreviates: dose: 60.0 mg/kg/injection, schedule: Q01DX005 (ip), vehicle: saline with Tween-80.
Setting [5] is: dose: 120.0 mg/kg/injection, schedule: Q01DX005 (ip), vehicle: saline with Tween-80.
[6] abbreviates: dose: 240.0 mg/kg/injection, schedule: Q01DX005 (ip), vehicle: saline with Tween-80.
[7] abbreviates: dose: 50.0 mg/kg/injection, schedule: Q01DX009 (ip), vehicle: saline.
[8] abbreviates: dose: 100.0 mg/kg/injection, schedule: Q01DX009 (ip), vehicle: saline.
[9] abbreviates: dose: 200.0 mg/kg/injection, schedule: Q01DX009 (ip), vehicle: saline.
Setting [10] is: dose: 50.0 mg/kg/injection, schedule: Q01DX009 (ip), vehicle: Klucel (hydroxypropylcellulose) (HPC).
[11] abbreviates: dose: 100.0 mg/kg/injection, schedule: Q01DX009 (ip), vehicle: Klucel (hydroxypropylcellulose) (HPC).
Setting [12] is: dose: 200.0 mg/kg/injection, schedule: Q01DX009 (ip), vehicle: Klucel (hydroxypropylcellulose) (HPC).
Where [13] appears, read: dose: 50.0 mg/kg/injection, schedule: Q01DX005 (ip), vehicle: saline with Tween-80.
[14] abbreviates: dose: 100.0 mg/kg/injection, schedule: Q01DX005 (ip), vehicle: saline with Tween-80.
[15] abbreviates: dose: 200.0 mg/kg/injection, schedule: Q01DX005 (ip), vehicle: saline with Tween-80.
Setting [16] is: dose: 30.0 mg/kg/injection, schedule: Q01DX005 (ip), vehicle: saline with Tween-80.
Where [17] appears, read: dose: 25.0 mg/kg/injection, schedule: Q01DX009 (ip), vehicle: saline with Tween-80.
The mark [18] stands for this setting: dose: 50.0 mg/kg/injection, schedule: Q01DX009 (ip), vehicle: saline with Tween-80.
Setting [19] is: dose: 12.5 mg/kg/injection, schedule: Q01DX009 (ip), vehicle: Klucel (hydroxypropylcellulose) (HPC).
Where [20] appears, read: dose: 25.0 mg/kg/injection, schedule: Q01DX009 (ip), vehicle: Klucel (hydroxypropylcellulose) (HPC).

“And” between values parts separate entries of the source, which are not always exact repeats. Equal values may be shown once. Toxic doses and inconclusive results are not listed. Square brackets hold non-standard residues; d marks the D form. Peptide text beside a SMILES is read from it. ξ: configuration not given here. ξL = CC(C)CC(N)C(=O)O

For the compound `CC(C)CC(NC(=O)CN)C(=O)NCC(=O)NCC(=O)O` (configuration not stated) (H-G[ξL]GG-OH), the T/C reads like this: under setting [1], 100 % of control; under setting [2], 102 % of control; under setting [3], 95 % of control.

In the case of `O=C1C(c2cnc3c(n2)CCC=C3)=C(O)c2ccccc21`, the T/C reads like this: under setting [4], 99 % of control; under setting [5], 100 % of control; under setting [6], 100 % of control.

Consider `C[C@@H]1CN(c2ccccc2)C[C@@H](C)OS(=O)O1`, for which the T/C by setting is: (dose: 100.0 mg/kg/injection, schedule: Q04DX002 (ip), vehicle: Klucel (hydroxypropylcellulose) (HPC)) 104 % of control; (dose: 200.0 mg/kg/injection, schedule: Q04DX002 (ip), vehicle: Klucel (hydroxypropylcellulose) (HPC)) 97 % of control; (dose: 400.0 mg/kg/injection, schedule: Q04DX002 (ip), vehicle: Klucel (hydroxypropylcellulose) (HPC)) 100 % of control.

`O=CNNc1nn2cnnc2c2ccccc12`: the T/C was 97 % of control under setting [7], 94 % of control under setting [8] and 102 % of control under setting [9].

Take `S=C(NNC(=S)Nc1ccccc1)Nc1ccccc1`: the T/C was 102 % of control (dose: 25.0 mg/kg/injection, schedule: Q01DX009 (ip), vehicle: saline); 97 % of control under setting [10]; 109 % of control under setting [7]; 93 % of control under setting [11]; 100 % of control under setting [8]; 101 % of control under setting [12]. Moreover, the T/C (dose: 400.0 mg/kg/injection, schedule: Q01DX009 (ip), vehicle: Klucel (hydroxypropylcellulose) (HPC)) is 104 % of control.

`O=C(O)CSCCCCCSCC(=O)O`: the T/C was 105 % of control under setting [7], 106 % of control under setting [8] and 106 % of control under setting [9].

On to `COC(=O)C1=C(C(=O)OC)C2(c3ccccc3-c3ccccc32)C2C=CC=NN12` (configuration not stated), for which the T/C is, setting by setting: under setting [1], 100 % of control; under setting [2], 103 % of control; under setting [3], 100 % of control.

As to `COc1ccc2c(c1OC)C1N(C)CCc3cc4c(cc3C1(OC)C2=O)OCO4` (configuration not stated), the T/C is 93 % of control under setting [4], 88 % of control under setting [5] and 93 % of control under setting [6].

For the compound `CC1=CC(O)CC(C)(C)C1` (configuration not stated), the T/C under setting [7] was 106 % of control, the T/C under setting [8] was 100 % of control and the T/C under setting [9] was 99 % of control.

On to `O=S1(=O)NC(=NC2CCCCC2)c2ccccc21`, for which the T/C runs as follows: under setting [13], 105 % of control; under setting [14], 105 % of control; under setting [15], 99 % of control.

`CN(C(=O)C(Cl)Cl)c1ccc(-c2csc(-c3ccc(O)cc3)n2)cc1`: the T/C (dose: 100.0 mg/kg/injection, schedule: Q04DX003 (ip), vehicle: Klucel (hydroxypropylcellulose) (HPC)) is 100 % of control; the T/C (dose: 200.0 mg/kg/injection, schedule: Q04DX003 (ip), vehicle: Klucel (hydroxypropylcellulose) (HPC)) was 99 % of control; the T/C (dose: 400.0 mg/kg/injection, schedule: Q04DX003 (ip), vehicle: Klucel (hydroxypropylcellulose) (HPC)) was 99 % of control.

With `O=[N+]([O-])c1ccc(SC(=S)N2CCCCC2)c([N+](=O)[O-])c1`, the T/C is 105 % of control under setting [10], 106 % of control under setting [11] and 111 % of control under setting [12].

As to `CC1=CC2N(C=C1)C(c1ccccc1)=NON2c1cc(C)ccn1` (configuration not stated), the T/C reads like this: (dose: 7.5 mg/kg/injection, schedule: Q01DX005 (ip), vehicle: saline with Tween-80) 91 % of control; (dose: 15.0 mg/kg/injection, schedule: Q01DX005 (ip), vehicle: saline with Tween-80) 94 % of control; under setting [16], 91 % of control.

`COc1ccc(C(=O)c2ccc(OCCBr)cc2)c(O)c1`: the T/C is, setting by setting: under setting [13], 92 % of control; under setting [14], 88 % of control; under setting [15], 88 % of control.

For `CCCCCCOc1ccc(OCCCC[N+]2(CC)CCCCC2)cc1`, the T/C is, setting by setting: (dose: 1.56 mg/kg/injection, schedule: Q01DX009 (ip), vehicle: saline) 105 % of control; (dose: 3.12 mg/kg/injection, schedule: Q01DX009 (ip), vehicle: saline) 106 % of control; (dose: 6.25 mg/kg/injection, schedule: Q01DX009 (ip), vehicle: saline) 104 % of control.

For `COc1cc(OC(C)C)cc2c1C(=O)C(C(O)(O)C(F)(F)F)=CC2=O`, the T/C was 109 % of control (dose: 15.0 mg/kg/injection, schedule: Q01DX005 (ip), vehicle: Klucel (hydroxypropylcellulose) (HPC)); 103 % of control (dose: 30.0 mg/kg/injection, schedule: Q01DX005 (ip), vehicle: Klucel (hydroxypropylcellulose) (HPC)); 99 % of control (dose: 60.0 mg/kg/injection, schedule: Q01DX005 (ip), vehicle: Klucel (hydroxypropylcellulose) (HPC)).

For the compound `O=C1CC2(C(=O)O1)C1C(=O)OC(=O)C1C1C=CC=NN12` (configuration not stated), the T/C under setting [17] was 90 % of control; the T/C under setting [18] is 93 % of control; the T/C (dose: 100.0 mg/kg/injection, schedule: Q01DX009 (ip), vehicle: saline with Tween-80) is 93 % of control.

On to `O=c1[nH]c(C(Br)(Br)Br)nc2ccccc12`, for which the T/C was 99 % of control under setting [19], 112 % of control under setting [20], 113 % of control under setting [10] and 117 % of control under setting [11].

Regarding `COC(=O)C1C(O)CN2CCCC12C` (configuration not stated), the T/C (dose: 100.0 mg/kg/injection, schedule: Q04DX003 (ip), vehicle: saline with Tween-80) was 107 % of control; the T/C (dose: 200.0 mg/kg/injection, schedule: Q04DX003 (ip), vehicle: saline with Tween-80) is 97 % of control; the T/C (dose: 400.0 mg/kg/injection, schedule: Q04DX003 (ip), vehicle: saline with Tween-80) is 108 % of control.

As for `CCCOc1ccc(C(N)=S)cc1`, the T/C is 98 % of control and 103 % of control under setting [19]; 101 % of control and 105 % of control under setting [20]; 115 % of control and 120 % of control and 96 % of control under setting [10]; 86 % of control under setting [11].

As for `C[n+]1c(-c2ccc(/C=N/Nc3ccnc(N/N=C/c4ccc(-c5cn6ccccc6[n+]5C)cc4)n3)cc2)cn2ccccc21`, the T/C was 150 % of control under setting [16] and 88 % of control under setting [4].

For the compound `COC1=C(N2CC2)C(=O)C(OC)=C(N2CC2)C1=O`, the T/C (dose: 4.0 mg/kg/injection, schedule: Q04DX003 (ip), vehicle: saline with Tween-80) is 159 % of control.

Consider `N#C/C=C1/C=CC(O)CC1OC1OC(CO)C(O)C(O)C1O` (configuration not stated), for which the T/C is, setting by setting: (dose: 3.0 mg/kg/injection, schedule: Q01DX009 (ip), vehicle: saline) 102 % of control; (dose: 6.0 mg/kg/injection, schedule: Q01DX009 (ip), vehicle: saline) 101 % of control; (dose: 12.0 mg/kg/injection, schedule: Q01DX009 (ip), vehicle: saline) 102 % of control; (dose: 24.0 mg/kg/injection, schedule: Q01DX009 (ip), vehicle: saline) 104 % of control.

In the case of `CCC[CH2][Sn]([CH2]CCC)([CH2]CCC)[C]1(CCCC2CO2)SCCCS1` (configuration not stated), the T/C reads like this: (dose: 12.5 mg/kg/injection, schedule: Q01DX009 (ip), vehicle: saline with Tween-80) 86 % of control; under setting [17], 94 % of control; under setting [18], 108 % of control.

On to `CC(=O)Nc1ccc2c(C)cc(Cl)nc2c1`, for which the T/C runs as follows: under setting [4], 95 % of control; under setting [5], 90 % of control; under setting [6], 89 % of control.

Turning to `OCC1OC(n2cnc3c(SCc4ccccc4)ncnc32)C(O)C1O` (configuration not stated), the T/C by setting is: (dose: 88.0 mg/kg/injection, schedule: Q01DX009 (ip), vehicle: saline with Tween-80) 100 % of control; (dose: 132.0 mg/kg/injection, schedule: Q01DX009 (ip), vehicle: saline with Tween-80) 95 % of control; (dose: 200.0 mg/kg/injection, schedule: Q01DX009 (ip), vehicle: saline with Tween-80) 86 % of control.

Consider `C=C1C(=O)C(CCCC)=C(CCC)C1O` (configuration not stated), for which the T/C under setting [4] was 100 % of control and the T/C under setting [5] is 107 % of control.

Regarding `FC(F)(F)c1cccc(N=Cc2ccc(C=Nc3cccc(C(F)(F)F)c3)cc2)c1`, the T/C is 99 % of control under setting [7], 99 % of control under setting [8] and 97 % of control under setting [9].
